What was measured:
[1] = test system: pregnant rats; assay: Antenatal treatment of pregnant rats: weight of maternal and fetal lungs; format: in vivo, rat; conditions: delivery at d18; for Weight fetal lung (g)/g fetus / Average weight fetal lungs: antenatal treatment 48 h; for Average weight fetal lungs: n = 9; for increase of average fetal lung weight in relation to body weight: i.p. at d16 of gestation and 24 h later, leptin 1 mg/kg, dexamethasone 6 mg/kg, vs control
Method: Leptin (1 mg/kg body weight) was administered to pregnant rats at d16 of gestation and 24 h later by intraperitoneal injection. Dexamethasone at 6 mg per kg body weight was administered at similar time intervals as leptin. In addition, the effect of a combination of leptin and dexamethasone treatment was tested. After 48 h of leptin, dexamethasone or leptin/dexamethasone exposure, premature delivery of the rat pups was induced at d18, which is similar to 30 weeks of gestation in the human. The fetuses from each litter were pooled and weighed, and various tissues from both the rat fetuses and mothers were also dissected and weighed. […] Antenatal treatment with dexamethasone increased fetal lung weight by 41%.

[2] = test system: SP-B (surfactant protein-B); assay: Western blot of SP-B in 21-day gestation fetal rat lung explants cultured with leptin; format: cell-based; conditions: d21 explants
Method: FIG. 1 is a Western blot analysis of SP-B (surfactant protein-B) from 21-day gestation, fetal rat lung explants cultured in the presence or absence of leptin. Fetal lung explants were exposed to either (A) 1 ng/ml or (B) 10 ng/ml leptin from initiation of culture (day 0). Explants were harvested and protein extracts were prepared on days (d) 1, 2, and 3 of culture. Western blots were probed with an antibody specific to rat SP-B.
We have used a fetal lung explant model to mimic the conditions of the premature lung. Lungs from d21 rat fetuses, term being 22 days, were dissected free of heart, trachea and bronchi and placed in ice-cold serum free Waymouth medium and cut into 1 mm^3 pieces on a McIlwain tissue chopper. The lung explants were placed in tissue culture dishes that were scratched (along each half) to facilitate attachment of explants. The excess medium was aspirated and fresh medium (2 ml for 60 mm plate) was gently placed on the explants. The 17-21 d explants were incubated in 95% O2-5% CO2, since incubation of these explants in 5% CO2 in air can cause compression of airways (Gross and Wilson, J. Appl. Physiol. 55: 1725-32, 1983). The petri dishes were placed on a tilting platform and allowed to rest for 90 min in a humidified atmosphere in a CO2 incubator. Thereafter, the plates were tilted at 34 cycles per minute so that during each cycle, one half of the petri dish was exposed to gas phase and the other half was covered with the medium. Leptin at either 1 or 10 ng/ml was added to the explant cultures on the day of establishment of the culture (day 0). The explants were cultured for varying periods of time for up to 3 days, and protein extracts were prepared to establish a time course for leptin effects on the fetal lung. Surfactant proteins were separated by electrophoresis on 15% polyacrylamide—SDS gels, and transferred to nitrocellulose membranes by electroblotting. The membranes were blocked with 2% gelatin (BioRad), treated overnight with anti-SP-B, and then with secondary antibody (goat anti-rabbit HRP-conjugated antibody). […]

[3] = test system: SP-A, SP-B, SP-C mRNA; assay: RT-PCR of surfactant protein mRNA in day 17 fetal lung explant cultures; format: cell-based, rat; conditions: 1 ng/ml leptin
Method: Cultures were exposed to 1 ng/ml leptin (lanes 3, A-C) or control medium (lanes 2, A-C), and total RNA was isolated at the indicated day of culture. Total RNA was reverse transcribed and amplified with both β-actin and […] PCR primers. In each figure, lane 1 is the time of initiation of culture (day 0). Low levels of all surfactant RNAs were detected in the uncultured cells (lanes 1, A-C). The size of the β-actin RT/PCR product is 492 bp; the size of SP-A is 352 bp; SP-B is 201 bp, and SP-C is 284 bp.
Qualitative RT/PCR detection of surfactant mRNA was performed using the Ambion QuantumRNA kit (Ambion, Austin, Tex.) and 1 μg of total RNA isolated from explants cultured for 3 days in culture. Lanes 1, 3,5: control day 3; lanes 2, 4, 6: 1 ng/ml leptin day 3.
To explore the effect of gestational age on surfactant production in response to leptin, we exposed younger lung explant cultures (d17) to 1 ng/ml leptin. Total RNA was extracted by homogenizing the explants in 4M guanidine thiocyanate, applying the lysate on a Qiagen RNeasy column (Qiagen, Chatsworth, Calif.), and recovering total RNA according to the manufacturer's instructions. RNA was quantified by measurement of absorbancy at 260 nm (A260). The quality of RNA was assessed by the A260/A280 ratio and by separation on agarose gels. Total RNA (1 μg) was brought up to 10 μl in DEPC-treated water. The sample was heated to 75° C. for 3 min, placed on ice, and cDNA synthesis was performed by reverse transcription for 15 min at 42° C. in a 20 μl reaction containing 1×PCR buffer II (Perkin-Elmer), 5 mM MgCl2, 1.25 mM each dNTP, 1 U/μl RNasin (Promega), 12.5 μg/μl oligo (dT) 15, and 2.5 U/μl AMV reverse transcriptase (Promega Madison, Wis.). Subsequent amplification of the cDNA sequence was performed with 10 μl of the reverse transcription reaction in 1×Taq buffer, 5% DMSO, 25 pmol each primer (Table 1), and 1.25 U Taq polymerase in a 50 μl reaction volume.
For assessment of the relative levels of SP-A, SP-B and SP-C transcripts, a multiplex RT/PCR reaction with β-actin was used. The temperature profile for the PCR reactions consisted of a 2 min melting step at 95° C., then 30 cycles of 30 s at 94° C., 30 s at 55° C., and 60 sec at 65° C., followed by a final extension step of 5 min at 72° C. RT-PCR products were separated by size on a 4% agarose gel and stained with ethidium bromide. Gel visualization and quantitative analysis of relative band intensities was performed using Eagle Eye II hardware and software (Stratagene, La Jolla, Calif.).
However, leptin also increases the levels of P-actin in fetal lung explant cultures. […] Therefore, we chose to use 18S rRNA to determine the relative levels of surfactant mRNA because of the invariant expression of 18S rRNA across tissues and treatments. Since 18S rRNA is much more abundant than any mRNA species, modified 18S rRNA primers called competimers (Ambion) are used that cannot be extended by Taq polymerase. By adjusting the ratio of competimers to normal 18S rRNA primers, the RT/PCR signal for 18S rRNA can be decreased to the level of even rare messages, as described by the manufacturer. […] These experiments support the hypothesis that leptin has an effect on the maturation of type II alveolar cells.

[4] = test system: leptin receptor OB-Rb mRNA; assay: RT-PCR of leptin receptor expression in day 17 fetal lung explant cultures; format: cell-based, rat; conditions: d17 fetal lung explants, 3 days; 1 ng/ml leptin or 10 nM dexamethasone
Method: FIG. 4 depicts RT-PCR analysis of leptin receptor expression in day 17 fetal lung explant cultures. Total RNA was reverse transcribed and amplified with either the short (OB-Ra) or the long (OB-Rb) form of the leptin receptor. Day 0 (Cd0) represents the time of initiation of culture. The fetal lung explants were exposed for 3 days to either control medium (Cd3), 1 ng/ml leptin (Ld3), or 10 nM dexamethasone (Dexd3). The size of the OB-Ra RT/PCR product is 479 bp and OB-Rb is 262 bp.
To explore the effect of gestational age on surfactant production in response to leptin, we exposed younger lung explant cultures (d17) to 1 ng/ml leptin. Total RNA was extracted by homogenizing the explants in 4M guanidine thiocyanate, applying the lysate on a Qiagen RNeasy column (Qiagen, Chatsworth, Calif.), and recovering total RNA according to the manufacturer's instructions. RNA was quantified by measurement of absorbancy at 260 nm (A260). The quality of RNA was assessed by the A260/A280 ratio and by separation on agarose gels. Total RNA (1 μg) was brought up to 10 μl in DEPC-treated water. […]

[5] = test system: isolated type II alveolar cells; assay: RT-PCR of surfactant and GAPDH mRNA in cultured isolated fetal type II alveolar cells; format: cell-based, rat; conditions: 1 ng/ml leptin, 24 h, d19 type II cells
Method: FIG. 5 depicts RT-PCR analysis of surfactant and GADPH (glyceraldehyde phosphate dehydrogenase) mRNA expression in cultured isolated type II alveolar cells. Cells were exposed to either 1 ng/ml leptin (1 L) or 10 ng/ml leptin (10 L). Control cells were not exposed to leptin.
To determine if the leptin effect on surfactant production was due to a direct effect of leptin on the type II alveolar cell, we determined whether the effects of leptin could be reproduced in isolated type II alveolar cells in culture. Alveolar type II cells were obtained from the lungs of 19-d gestation fetal rats by the method described by Bhandari et al., (Pediatr. Res. 41:166-71, 1997). In brief, lungs of 19-day gestation fetal rats were removed, dissected free of connective tissue and nonparenchymal pulmonary tissue, and cultured as explants for 40-48 h in serum free Waymouth MB 752/1 medium with penicillin and streptomycin in humidified 95% O2/5% CO2 at 37° C. […] The explant cells were then harvested and the cells dissociated using a solution of collagenase, trypsin and DNase. The mixed cell suspension was subjected to three differential adhesions to remove fibroblasts. The non-adherent suspension containing an enriched population of fetal type II cells was plated at 2×10^6 cells/35 mm dish in 2 ml of minimum essential medium containing penicillin (100 U/ml), kanamycin ([…]) and 2% fetal bovine serum. The cells were cultured for 20-22 h at 37° C. in […] (Bhandari et al., Pediatr. Res. 41:166-71, 1997). Cultures contain 90-95% type II cells of which >99% are viable as determined by exclusion of the vital dye, trypan blue. The usual yield of type II cells from the lungs of the fetuses (10-16) per pregnant rat is approximately 10^7 cells.
Type II cells from d19 fetal lungs were cultured for 24 h and then exposed to either 1 or 10 ng/ml leptin for 24 h. Total RNA was isolated from these cells and then examined for SP-A, SP-B, SP-C, and GAPDH (housekeeping gene) mRNA expression.

[6] = test system: cornea from normal rats; conditions: but not fa/fa Zucker rats, Sierra-Honigmann et al.; cited from earlier work
[7] = test system: ob/ob mice; conditions: cited from earlier work
[8] = test system: type II alveolar cells; assay: Histologic analysis of fetal lung after antenatal treatment (alkaline phosphatase staining); format: in vivo, rat; conditions: antenatal treatment for 48 h, alkaline phosphatase staining (FIG. 6)
Method: FIG. 6 depicts the effect of antenatal treatment with leptin or dexamethasone on fetal lung morphology. Fetal lung sections were stained with a histochemical stain for alkaline phosphatase, which identifies type II cells. Control, no leptin; dexamethasone (6 mg/ml for 48 h); leptin (0.25 mg/ml for 48 h).
Histologic analysis of the lung tissue was done to determine the basis for the increased fetal lung weight. Type II cells were identified by alkaline phosphatase staining as previously described (Post and Smith, Am. Rev. Respir. Dis. 137: 525-30, 1988). Unfixed frozen 5 μm sections of fetal lung tissue were stained histochemically with alkaline phosphatase at pH 8.74 to identify type II alveolar cells. Slides were incubated for 60 minutes at 37° C. in 25 ml of 0.2M Tris-HCl buffer and 25 ml of deionized water, 5 mg of Naphthol AS-BI phosphate, 0.1 ml dimethylformamide, and 30 mg of fast red TR. The slides were then rinsed in 3 changes of deionized water, counterstained for 30 seconds in Harris hematoxylin and blued in running water for 3-5 minutes. Slides were mounted from water in Advantage™.

[9] = d17 explants, multiplex RT/PCR with β-actin (FIG. 2)
[10] = d17 lung explants, 3 days in culture

OB-Rb mRNA levels [4] | Compound | Weight fetal lung (g)/g fetus [1] | Average weight fetal lungs [1] | increase of average fetal lung weight in relation to body weight [1] | SP-B production ([2]; 1 ng/ml leptin, 48 or 72 h exposure, vs control cultures) | SP-B levels ([2]; 10 ng/ml leptin, 48 and 72 h) | SP-B production ([2]; 10 ng/ml leptin, 24 h) | SP-A mRNA levels [3, 9] | SP-C mRNA levels [3, 9] | SP-A mRNA level relative to 18S rRNA, increase [3, 10] | SP-B mRNA level relative to 18S rRNA, increase [3, 10] | SP-C mRNA level relative to 18S rRNA, increase [3, 10] | levels of β-actin ([3]; fetal lung explant cultures (FIG. 2)) | SP-A mRNA levels [5] | SP-B mRNA levels [5] | SP-C mRNA levels [5] | neovascularization in cornea [6] | respiratory depression ([7]; O'Donnell et al. 1999) | volume-dependent decrease in lung compliance ([7]; Tankersley et al. 1998) | number of type II alveolar cells in fetal lung [8]
– | C[C@@H]1C[C@H]2[C@@H]3CCC4=CC(=O)C=C[C@]4(C)[C@@]3(F)[C@@H](O)C[C@]2(C)[C@@]1(O)C(=O)CO [Dexamethasone, dexamethasone, reference compound] | 0.52 g/g fetus | 0.79 (n = 9) g | 41% | – | – | – | – | – | – | – | – | – | – | – | – | – | – | – | –
decreases | leptin | 0.56 g/g fetus | 0.87 (n = 9) g | 51% | increases SP-B production above that of the control cultures | decreases SP-B levels | increases SP-B production | significantly increases | significantly increases | 1.6 fold | 5 fold | 2 fold | increases | increased | increased | increased | induces neovascularization | prevent respiratory depression | ameliorated | increase in the number of type II alveolar cells

From patent US6884777B1, “Method for treating respiratory distress syndrome” (The Nemours Foundation, priority 2000, dated 2005)
